Consider 15 compounds from the SangsterLogP compilation.

By logP is commonly meant a log measure of how a compound divides between an organic and an aqueous phase. A low value points to lower lipophilicity. In turn, `Cc1ccccc1C(=O)c1ccccc1C` came in with a logP of 3.87. For the compound `CCc1ncc[nH]1`, the logP is 0.77. `CCCCCCCc1ccc(C(=O)O)cc1` gave a logP of 5.56. The result for `CCCc1ncc[nH]1` reads 1.3; that for `Cc1cccc(C)c1C(=O)c1c(C)cccc1C`, 4.69. Then `CCc1cccc(CC)c1C(=O)c1c(CC)cccc1CC`, with 6.54. `Cc1cccc(C)c1C(=O)c1ccccc1` yielded a logP of 3.65. Regarding `Nc1ccc2ccc3cccc4ccc1c2c34`, the logP was determined as 4.01.

In turn, `CCCCCc1ccc(C(=O)O)cc1` came in with a logP of 4.5. Then `Nc1ccc(Br)c2ccccc12`, with 3.26; and `CCc1c2ccccc2cc2ccccc12`, with 5.52. On to `O=[N+]([O-])c1cccc2ccccc12`, for which the logP came out at 3.06. `Cc1nc2ccccc2[nH]1` registered a logP of 1.84. For the compound `Cc1ccc(C(=O)O)cc1C`, the logP is 2.95. Then `Clc1ccc2cc3ccccc3cc2c1`, with 5.2.
